Data set [1] relates to SARS-CoV-2 S and N protein. The data set can be described thus: Western blot of SARS-CoV-2 S and N protein levels. The settings on record: SARS-CoV-2, after exposure. The protocol: FIG. 3C is a Western blot analysis of IAV HA and NP protein levels after exposure of IAV to the fabric of Example 3-A and comparative example A. Both the virus that was removed (eluate) from each fabric with PBSTE as well as the virus that remained on each fabric was analyzed and reported in FIG. 3D. Similarly, a Western blot analysis of SARS-CoV-2 S and N protein levels after exposure of virus to the Example 3-A and comparative example A as shown in FIG. 3E. Both the virus that was removed (eluate) from each fabric with PBSTE as well as the virus that remained on each fabric were analyzed and reported in FIG. 3F.
There was no effect on the viral nucleoprotein, which allowed use of the viral nucleoprotein as internal control. A similar altered surface protein to nucleoprotein ratio on the zinc-embedded PA66 fabrics was observed.
On the technique in general: A western blot detects proteins with antibodies after separation by electrophoresis.

For another data set, the system named is IAV HA and NP protein. The data set can be described thus: Western blot of IAV HA and NP protein levels. The settings on record: for stability of virus surface protein HA: IAV, after exposure.
A further data set deals with IAV NA segment. Put plainly: RT-qPCR of viral RNA (NA segment). The settings on record: for viral RNA integrity (RT-qPCR): after treatment. On the technique in general: Quantitative PCR measures a nucleic acid by following its amplification.
Where [2] appears, read: IAV in the presence of zinc chloride.

Molecules are shown by their SMILES.

Protocol for IAV (H1N1): To investigate if zinc ions can directly inactivate IAV, influenza virus was incubated with varying concentrations of zinc chloride.

For the compound `O=C(O)CN(CCN(CC(=O)O)CC(=O)O)CC(=O)O` [EDTA], the “effect on viral titer” value in the data set on IAV (H1N1) (EDTA alone) was “does not have any cytotoxic effects itself or reduce the viral titer”.
In the case of `[Cu+2]` [copper ions], the “stability of virus surface protein S” value in data set [1] is reported as “aberrant migration”. Moreover, the “stability of virus surface protein HA” value in the data set on IAV HA and NP protein is “aberrant migration”. The “viral RNA integrity (RT-qPCR)” value with IAV NA segment is “no significant reduction”.
For `[Cl-].[Cl-].[Zn+2]` [zinc chloride], the “cytotoxic effects in tissue culture” value in the data set on MDCK cells is “cytotoxic”. For the same compound, the “stability of virus surface protein S” value in data set [1] is “reduced stability”. Further, in the data set with IAV HA and NP protein (setting [2]), the “HA levels (western blot)” value is reported as “reduced in a concentration-dependent manner” and the “NP levels (western blot)” value is “did not diminish”. Moreover, the “stability of virus surface protein HA” value in the data set on IAV HA and NP protein was “reduced stability”. Also, the “viral NA segment levels (RT-qPCR)” value in the data set on IAV NA segment (IAV after zinc chloride and EDTA neutralization) is “No effect”. Also, the “viral RNA integrity (RT-qPCR)” value in the data set with IAV NA segment is reported as “no significant reduction”. The “reduction on the IAV titer” value in the data set on IAV (H1N1) (60 min incubation, varying concentrations, stopped with equimolar EDTA) is “approximately 2 log”.

Values taken from patent US11618810B2, “Antiviral articles” (priority 2020, dated 2023).
